Reference: PubChem BioAssay AID248 (DTP/NCI, 2004)
Toxic doses and inconclusive results are not listed. No stated cut-off is given here; in the data, active means T/C of 150% or more; inactive means T/C below 125%.

System: L1210 leukemia ip in BDF1 mice, survival T/C
Test: NCI In Vivo Anticancer Drug Screen. Data for tumor model L1210 Leukemia (intraperitoneal) in B6D2F1 (BDF1) mice
Settings: endpoint: mean survival time, higher = longer survival
How it was run: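 Each compound was tested against a transplantable tumor grown in mice. The endpoint was survival, with treated animals benchmarked against vehicle controls as a simple ratio.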

[1] = dose: 100.0 mg/kg/injection, schedule: Q04DX002 (ip), vehicle: Klucel (hydroxypropylcellulose) (HPC)
[2] = dose: 200.0 mg/kg/injection, schedule: Q04DX002 (ip), vehicle: Klucel (hydroxypropylcellulose) (HPC)
[3] = dose: 400.0 mg/kg/injection, schedule: Q04DX002 (ip), vehicle: Klucel (hydroxypropylcellulose) (HPC)
[4] = dose: 100.0 mg/kg/injection, schedule: Q01DX009 (ip), vehicle: saline with Tween-80
[5] = dose: 200.0 mg/kg/injection, schedule: Q01DX009 (ip), vehicle: saline with Tween-80
[6] = dose: 400.0 mg/kg/injection, schedule: Q01DX009 (ip), vehicle: saline with Tween-80
[7] = dose: 50.0 mg/kg/injection, schedule: Q01DX009 (ip), vehicle: saline with Tween-80
[8] = dose: 75.0 mg/kg/injection, schedule: Q01DX009 (ip), vehicle: Klucel (hydroxypropylcellulose) (HPC)
[9] = dose: 150.0 mg/kg/injection, schedule: Q01DX009 (ip), vehicle: Klucel (hydroxypropylcellulose) (HPC)
[10] = dose: 300.0 mg/kg/injection, schedule: Q01DX009 (ip), vehicle: Klucel (hydroxypropylcellulose) (HPC)
[11] = dose: 100.0 mg/kg/injection, schedule: Q01DX009 (ip), vehicle: Klucel (hydroxypropylcellulose) (HPC)
[12] = dose: 200.0 mg/kg/injection, schedule: Q01DX009 (ip), vehicle: Klucel (hydroxypropylcellulose) (HPC)
[13] = dose: 400.0 mg/kg/injection, schedule: Q01DX009 (ip), vehicle: Klucel (hydroxypropylcellulose) (HPC)

Measured: T/C

CC1CCC2(O)C3(C)CC4(O)OC2(C1O)C1(O)C3(O)C(OC(=O)c2ccc[nH]2)C(O)(C(C)C)C41C (centres undefined)
inactive: dose: 0.25 mg/kg/injection, schedule: Q01DX001 (ip), vehicle: carboxymethylcellulose (CMC) 93 % of control

NC(=O)N/N=C/c1ccc([N+](=O)[O-])cc1
inactive: [1] 96 % of control | [2] 110 % of control | [3] 107 % of control

C/C=C\C=N\NC(=O)C(=O)N/N=C/C=C\C
inactive: [1] 97 % of control | [2] 91 % of control | [3] 112 % of control

O=C(NO)N/N=C/c1ccc(/C=N/NC(=O)NO)cc1
inactive: dose: 100.0 mg/kg/injection, schedule: Q01DX001 (ip), vehicle: other 100 % of control | [4] 101 % of control | dose: 100.0 mg/kg/injection, schedule: Q04DX003 (ip), vehicle: other 104 % of control | dose: 200.0 mg/kg/injection, schedule: Q01DX001 (ip), vehicle: other 100 % of control | [5] 95 % of control | dose: 200.0 mg/kg/injection, schedule: Q04DX003 (ip), vehicle: other 95 % of control | dose: 400.0 mg/kg/injection, schedule: Q01DX001 (ip), vehicle: other 102 % of control | [6] 101 % of control | dose: 400.0 mg/kg/injection, schedule: Q04DX003 (ip), vehicle: other 96 % of control

COc1cc(/C=N/NC(=O)CNC(=O)NCc2ccccc2)ccc1O
inactive: [7] 92 % of control | [4] 95 % of control

NNc1cc(S(=O)(=O)O)cc2cc(S(=O)(=O)O)cc(O)c12
inactive: [8] 107 % of control | [9] 107 % of control | [10] 104 % of control

O=C(O)C(O)(c1ccccc1)C(O)c1ccccc1 (centres undefined)
inactive: [4] 113 % of control | dose: 100.0 mg/kg/injection, schedule: Q04DX003 (ip), vehicle: saline with Tween-80 100 % of control | [5] 97 % of control | dose: 200.0 mg/kg/injection, schedule: Q04DX003 (ip), vehicle: saline with Tween-80 100 % of control | [6] 98 % of control | dose: 400.0 mg/kg/injection, schedule: Q04DX003 (ip), vehicle: saline with Tween-80 95 % of control

COc1ccc(CN(CCO)S(C)(=O)=O)cc1
inactive: dose: 100.0 mg/kg/injection, schedule: Q04DX003 (ip), vehicle: saline 91 % of control | dose: 200.0 mg/kg/injection, schedule: Q01DX009 (ip), vehicle: saline 96 % of control | dose: 200.0 mg/kg/injection, schedule: Q04DX003 (ip), vehicle: saline 96 % of control | dose: 400.0 mg/kg/injection, schedule: Q01DX009 (ip), vehicle: saline 88 % of control | dose: 400.0 mg/kg/injection, schedule: Q04DX003 (ip), vehicle: saline 100 % of control

N=c1ncn(Cc2ccccc2)c2nc[nH]c12
inactive: [11] 91 % of control | [12] 101 % of control

CC(=O)c1ccncc1
inactive: dose: 50.0 mg/kg/injection, schedule: Q01DX001 (ip), vehicle: saline 94 % of control | dose: 100.0 mg/kg/injection, schedule: Q01DX001 (ip), vehicle: saline 89 % of control | dose: 200.0 mg/kg/injection, schedule: Q01DX001 (ip), vehicle: saline 94 % of control | dose: 400.0 mg/kg/injection, schedule: Q01DX001 (ip), vehicle: saline 94 % of control

COc1ccc(CCCC(C)(C)O)cc1
inactive: [7] 94 % of control | [4] 97 % of control

O=Cc1ccc(OS(=O)(=O)c2ccc([N+](=O)[O-])cc2)cc1
inactive: [11] 97 % of control | [12] 98 % of control | [13] 90 % of control

O=C1C(OC(=O)c2ccccc2)=C(c2ccc(O)cc2)C(=O)C(OC(=O)c2ccccc2)=C1c1ccc(O)cc1
inactive: dose: 12.5 mg/kg/injection, schedule: Q01DX Z (ip), vehicle: carboxymethylcellulose (CMC) 94 % of control | dose: 25.0 mg/kg/injection, schedule: Q01DX Z (ip), vehicle: carboxymethylcellulose (CMC) 94 % of control | dose: 50.0 mg/kg/injection, schedule: Q01DX Z (ip), vehicle: carboxymethylcellulose (CMC) 105 % of control | dose: 100.0 mg/kg/injection, schedule: Q01DX Z (ip), vehicle: carboxymethylcellulose (CMC) 102 % of control

CC(=O)/C(=C/c1ccccc1)c1ccccc1
inactive: [8] 95 % of control | dose: 75.0 mg/kg/injection, schedule: Q04DX003 (ip), vehicle: Klucel (hydroxypropylcellulose) (HPC) 104 % of control | [9] 106 % of control | dose: 150.0 mg/kg/injection, schedule: Q04DX003 (ip), vehicle: Klucel (hydroxypropylcellulose) (HPC) 100 % of control | [10] 102 % of control | dose: 300.0 mg/kg/injection, schedule: Q04DX003 (ip), vehicle: Klucel (hydroxypropylcellulose) (HPC) 104 % of control

Cc1ccc(S(=O)(=O)NC(=O)NCc2cccc(Cl)c2)cc1
inactive: [11] 101 % of control | [12] 101 % of control | [13] 96 % of control

Cc1ccc2c(c1)CC(C)([CH2][Hg][Cl])O2 (centres undefined)
inactive: dose: 3.0 mg/kg/injection, schedule: Q01DX009 (ip), vehicle: Klucel (hydroxypropylcellulose) (HPC) 91 % of control | dose: 3.0 mg/kg/injection, schedule: Q04DX003 (ip), vehicle: Klucel (hydroxypropylcellulose) (HPC) 90 % of control | dose: 6.0 mg/kg/injection, schedule: Q01DX009 (ip), vehicle: Klucel (hydroxypropylcellulose) (HPC) 91 % of control | dose: 6.0 mg/kg/injection, schedule: Q04DX003 (ip), vehicle: Klucel (hydroxypropylcellulose) (HPC) 87 % of control | dose: 12.0 mg/kg/injection, schedule: Q04DX003 (ip), vehicle: Klucel (hydroxypropylcellulose) (HPC) 92 % of control

CC1=C(OS(=O)(=O)c2ccc(C)cc2)CCCC1=O
inactive: [7] 100 % of control | [4] 100 % of control | [5] 88 % of control

CCSc1ncc(C)c(Cl)n1
inactive: dose: 100.0 mg/kg/injection, schedule: Q01DX009 (ip), vehicle: water 103 % of control | dose: 100.0 mg/kg/injection, schedule: Q04DX003 (ip), vehicle: water 100 % of control | dose: 200.0 mg/kg/injection, schedule: Q01DX009 (ip), vehicle: water 94 % of control | dose: 200.0 mg/kg/injection, schedule: Q04DX003 (ip), vehicle: water 108 % of control | dose: 400.0 mg/kg/injection, schedule: Q01DX009 (ip), vehicle: water 100 % of control | dose: 400.0 mg/kg/injection, schedule: Q04DX003 (ip), vehicle: water 100 % of control

CC(CCN1CCOCC1)(CN=C(N)N)c1cccc2ccccc12 (centres undefined)
inactive: dose: 12.5 mg/kg/injection, schedule: Q01DX009 (ip), vehicle: saline 111 % of control | dose: 25.0 mg/kg/injection, schedule: Q01DX009 (ip), vehicle: saline 97 % of control | dose: 25.0 mg/kg/injection, schedule: Q04DX002 (ip), vehicle: saline 93 % of control | dose: 50.0 mg/kg/injection, schedule: Q01DX009 (ip), vehicle: saline 100 % of control
